Tests used:
[1] = Bio-distribution of radioactivity in normal and CNV eyes of unilateral-CNV rats (γ scintillation counting after perfusion); assay type: in vivo, Brown Norway (BN) pigmented rats; settings: for specific radioactivity, CNV eye: CNV (right) eye; for specific radioactivity, CNV eye / specific radioactivity, normal eye: i.v. 250 μCi, means ± s.d.; for specific radioactivity, normal eye: normal (left) eye
Experimental: (§1) In the process of monitoring the behavior of these animals, 2 to 3 out of the 10 rats were unable to walk straight. This abnormal behavior might be related to vision loss of the right eye as the result of laser photocoagulation. There were no other noticeable side effects observed in these rats.
After the SPECT, all rats were sacrificed and perfused with normal saline containing 2 mM EDTA. Animals were dissected to isolate both normal (left) and CNV (right) eyes. The isolated eyes were weighted and radioactivity associated with the eyes was counted by a γ scintillation counter (Cobra II Autogamma, Packed, USA). The uptake of radiotracer in the eyes or other tissues was expressed in counts per minute (cpm) with decay correction and was normalized as percent of injection dose per gram tissue (% ID/g).
The experiment determines the biodistribution of In^111, a small molecular marker and In^111-encapsulated liposome, a lipid nano-particle in an experimental CNV model. Ten unilateral CNV rats were randomly divided into two groups with 4 and 6 rats, respectively. Group 1 received 250 μCi of In^111-DTPA and group 2 received 250 μCi of In^111-encapsulated liposome by intravenous injection.

[2] = Single-photon emission computed tomography (SPECT) imaging of unilateral-CNV rats; assay type: in vivo, Brown Norway (BN) pigmented rats; settings: 3, 24 and 48 hours after i.v. 250 μCi
Experimental: as §1
The SPECT imaging was carried out at 3, 24, and 48 hours after the injection of 250 μCi of either In^111-DTPA or In^111 encapsulated liposome. […] The center field of view was 25.4 cm^2 and a single energy centered window was used at […], with a width of 20%. A sequence of scans ([…]×6) was obtained over a period of 15 min. Images were reconstructed in a 128×128 (pixels) format from data with 32 projections distributed over 180° around the rat and a 40 s scan for each projection. The projections of each experiment were processed by reconstruction using filtered back projection, with a low-pass Butterworth filter of order 22.4 and cutoff frequency of 0.43. Each transverse image was reconstructed in a 128×128 array with a pixel size of 1.9×1.9 mm and a zoom of 2.0×.
The experiment determines the biodistribution of In^111, a small molecular marker and In^111-encapsulated liposome, a lipid nano-particle in an experimental CNV model. Ten unilateral CNV rats were randomly divided into two groups with 4 and 6 rats, respectively. […]

[3] = Fluorescein angiography (FAG) and visual observation of eyes in unilateral-CNV rats after i.v. injection; settings: normal and CNV eyes, visual observation up to 24 hours
Experimental: Brown Norway (BN) pigmented rats, weighing between 200 and 250 gram, were anesthetized with intramuscular injection of 0.15 ml/kg of an equal-volume mixture of 2% lidocaine (Xylocalne; Astra, Astra Södertalje, Sweden) and 50 mg/mL ketamine (Ketalar; Parke-Davis, Morris Plains, N.J.). After anesthetizing, the right pupils were dilated with 1% tropicamide (1% Mydriacyl; Alcon Laboratories, Watford, UK). A small piece of transparent sheet (3M, Minneapolis, Minn.) approximately 3 mm in diameter was attached to the cornea by sodium hyaluronidase (Healon; Pharmacia and Upjohn, Inc., Kalamazoo, Mich.) to serve as a contact lens. Krypton laser (Novus Omni; Coherent, Palo Alto, Calif.) irradiation was delivered through a slit lamp (Carl Zeiss, Oberkochen, Germany). Laser parameters used were as follows: spot size of 100 mm, power of 120 to 160 mW, and exposure duration of 0.1 second. […] CNV was evaluated on day 14 by opthalmoscopy, fundus photography, and conventional fluorescein angiography (FAG) modified from (DiLoreto D, Grover D A, Del Cerro C. (1994) Curr Eye Res. 13, 157-61).
Fluorescein sodium (10%; 0.1 ml/kg; Fluorescite™; Alcon, Fort Worth, Tex.) was injected through the tail vein of the anesthetized rats 14 days after laser photocoagulation. The CNV lesions were recorded with a digital fundus camera (Retinal Angiography; Heidelberg Engineering, Heidelberg, Germany). […]

Compound	difference in specific radioactivity between the normal and CNV eyes ([1]; 24 and 48 hours post-injection)	specific radioactivity, CNV eye ([1]; 24 hours post injection)	specific radioactivity, CNV eye ([1]; 48 hours post injection)	specific radioactivity, normal eye ([1]; 24 hours post injection)	specific radioactivity, normal eye ([1]; 48 hours post injection)	accumulation of radioactivity in eyes on SPECT images [2]	visual appearance (colour) of the eyes after i.v. administration [3]
O=C([O-])CN(CCN(CC(=O)[O-])CC(=O)[O-])CCN(CC(=O)[O-])CC(=O)[O-].[111In+3].[H+].[H+] [In^111-DTPA]	no difference	0.14 ± 0.09 % ID/g	0.13 ± 0.05 % ID/g	0.16 ± 0.04 % ID/g	0.14 ± 0.06 % ID/g	did not show any In^111 accumulation in both normal and CNV eyes even at 3 hours	–
O=C1OC2(c3ccc(O)cc3Oc3cc(O)ccc32)c2ccccc21 [fluorescein sodium, Fluorescein sodium]	–	–	–	–	–	–	greenish color quickly disappeared within an hour

From patent US8753673B2, “Liposome composition for delivery of a therapeutic agent to eyes” (Taiwan Liposome Co. Ltd., priority 2006, dated 2014)
